# Experiments:
# [1] = tested on: Aedes aegypti; details: DEET at a dose of 23.8 percent, laboratory; cited from earlier work
# [2] = in vivo; cited from earlier work
# [3] = tested on: mosquitoes; details: cited from earlier work
# [4] = tested on: Aedes aegypti; test: Repellent efficacy test on hairless mouse coated with test product, exposed to female mosquitoes; assay type: in vivo; details: concentration of 3% or even less of synthetic evodone
# Method: In this respect, the invention is illustrated by the following efficacy tests, carried out in the laboratory, where the formulas are not degraded through the effects of abrasion, exudation, sunlight, temperature or even swimming in the sea. […] The tests are carried out on female Aedes aegypti mosquitoes aged 6 to 10 days having undergone a prior 24-hour period of fasting (no blood meal) in order to increase their aggressiveness. […] 30 minutes after product application, the mouse is introduced into a cage containing approximately 200 female mosquitoes (prior removal of the males using a food gradient). The test lasts 5 minutes and during this period the number of mosquitoes having landed on the mouse (“landing” effect: number of mosquitoes that land on the treated area and leave without biting) and the number of effective bites, are recorded. The test is stopped after 5 effective bites (“stop” in the Tables below). […] Based on the outcome of the first repetition, repetitions are performed at time intervals of 30 minutes in order to provide a more accurate limit for the duration of protection. During and between the runs, the mice are maintained in a “tropical” like atmosphere under controlled conditions at 27+/−1° C. and 70+/−5% relative humidity. The cages are changed upon each unit test and placed 3 meters apart. […]
compound,measurement,setting,value
"CCN(CC)C(=O)c1cccc(C)c1 [DEET, N,N-diethyl-3-methylbenzamide]",protection period,[1],more than 5 hours
same,share of a dose absorbed through the skin,[2],30%
"CCC(C)OC(=O)N1CCCCC1CCO (centres unmarked) [icaridin, 1-methylpropylester]",concentration with efficacy comparable to that of 30% DEET,[3],19.2%
"Cc1coc2c1C(=O)C[C@@H](C)C2 [evodone, (6S)3-6 dimethyl 6,7 dihydro 5H benzofuran-4-one]",repellent efficacy compared with DEET,[4],as effective as a concentration of 30% of DEET
p menthane 3.8 diol [citriodiol],maximum persistence of protection,[3],≤ 6 h
